This passage reports T/C results from PubChem BioAssay AID328 (DTP/NCI, 2004).

The structures appear in SMILES notation. Where “and” joins values, the source holds several entries; their conditions need not be identical. Equal values may be shown once. Inconclusive results and toxic doses are left out. Starred links: 1 amine or outer side, 2 acyl side, 3 side chain; linkers in the order of their positions; H or OH if unused. Positions of bridges follow the written chain, without caps; N, C: chain ends. Non-standard residues stand in square brackets, D forms with d. Residues, ends and D or L forms follow the SMILES beside them. Chains are numbered I, II in the order given. Actinocin(1to9) = Cc1c2oc3c(C)ccc(C(=O)[*:2])c3nc-2c(C(=O)[*:1])c(N)c1=O; NMeV = CN[CH](C(=O)O)C(C)C; Sar = CNCC(=O)O

In the experiment the test system is BDF1 mice, P388 leukemia ip, median survival T/C. The experiment is described as follows: NCI In Vivo Anticancer Drug Screen. Data for tumor model P388 Leukemia (intraperitoneal) in B6D2F1 (BDF1) mice. The following applies: endpoint: median survival time, higher = longer survival. The essentials:
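Vehicle-dosed animals serve as the reference; survival of compound-dosed, tumour-implanted mice is divided by it.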

Setting [1] is: dose: 50.0 mg/kg/injection, schedule: Q04DX003 (ip), vehicle: saline.
Where [2] appears, read: dose: 100.0 mg/kg/injection, schedule: Q04DX003 (ip), vehicle: saline.
The mark [3] stands for this setting: dose: 25.0 mg/kg/injection, schedule: Q04DX003 (ip), vehicle: saline.

For the compound `CCC(C)C1NC(=O)C(NC(=O)c2c3nc4c(C(=O)NC5C(=O)NC(C(C)C)C(=O)N6CCCC6C(=O)N(C)CC(=O)N(C)C(C(C)C)C(=O)OC5C)ccc(C)c4oc-3c(C)c(=O)c2N)C(C)OC(=O)C(C(C)C)N(C)C(=O)CN(C)C(=O)C2CCCN2C1=O` (configuration not stated) (I: TIP[Sar][NMeV] / II: TVP[Sar][NMeV]; ester I:1-I:C, II:1-II:C; linker I:N-II:N via Actinocin(1to9); configuration not given here), the T/C runs as follows: (dose: 0.05 mg/kg/injection, schedule: Q01DX010 (ip), vehicle: saline) 300 % of control; (dose: 0.1 mg/kg/injection, schedule: Q01DX010 (ip), vehicle: saline) 100 % of control; (dose: 0.2 mg/kg/injection, schedule: Q01DX001 (ip), vehicle: water) 175 % of control; (dose: 0.4 mg/kg/injection, schedule: Q01DX001 (ip), vehicle: water) 155 % of control; (dose: 0.8 mg/kg/injection, schedule: Q01DX001 (ip), vehicle: water) 175 % of control; (dose: 3.1 micrograms/kg/injection, schedule: Q01DX001 (ip), vehicle: saline) 118 % of control. In addition, the T/C runs as follows: (dose: 3.1 micrograms/kg/injection, schedule: Q01DX010 (ip), vehicle: saline) 180 % of control; (dose: 3.1 micrograms/kg/injection, schedule: Q04DX003 (ip), vehicle: saline) 118 % of control; (dose: 6.0 micrograms/kg/injection, schedule: Q01DX010 (ip), vehicle: saline) 180 % of control; (dose: 6.2 micrograms/kg/injection, schedule: Q01DX010 (ip), vehicle: saline) 190 % of control; (dose: 6.3 micrograms/kg/injection, schedule: Q01DX001 (ip), vehicle: saline) 109 % of control; (dose: 12.5 micrograms/kg/injection, schedule: Q01DX009 (ip), vehicle: water) 213 % of control. Besides, the T/C is, setting by setting: (dose: 12.5 micrograms/kg/injection, schedule: Q01DX010 (ip), vehicle: saline) 228 % of control and 220 % of control; (dose: 25.0 micrograms/kg/injection, schedule: Q01DX009 (ip), vehicle: water) 215 % of control; (dose: 25.0 micrograms/kg/injection, schedule: Q01DX010 (ip), vehicle: saline) 285 % of control and 220 % of control; (dose: 25.0 micrograms/kg/injection, schedule: Q04DX003 (ip), vehicle: saline) 154 % of control; (dose: 50.0 micrograms/kg/injection, schedule: Q01DX001 (ip), vehicle: saline) 150 % of control; (dose: 50.0 micrograms/kg/injection, schedule: Q01DX009 (ip), vehicle: water) 215 % of control. Besides, the T/C is 285 % of control and 300 % of control (dose: 50.0 micrograms/kg/injection, schedule: Q01DX010 (ip), vehicle: saline); 190 % of control (dose: 50.0 micrograms/kg/injection, schedule: Q04DX003 (ip), vehicle: saline); 172 % of control (dose: 75.0 micrograms/kg/injection, schedule: Q04DX003 (ip), vehicle: water); 159 % of control (dose: 100.0 micrograms/kg/injection, schedule: Q01DX001 (ip), vehicle: saline); 243 % of control (dose: 100.0 micrograms/kg/injection, schedule: Q01DX009 (ip), vehicle: water); 110 % of control (dose: 100.0 micrograms/kg/injection, schedule: Q01DX010 (ip), vehicle: saline). Moreover, the T/C was 186 % of control (dose: 100.0 micrograms/kg/injection, schedule: Q04DX003 (ip), vehicle: saline); 181 % of control (dose: 150.0 micrograms/kg/injection, schedule: Q04DX003 (ip), vehicle: water); 186 % of control (dose: 200.0 micrograms/kg/injection, schedule: Q01DX001 (ip), vehicle: saline); 90 % of control (dose: 200.0 micrograms/kg/injection, schedule: Q01DX010 (ip), vehicle: saline); 231 % of control (dose: 200.0 micrograms/kg/injection, schedule: Q04DX003 (ip), vehicle: saline); 241 % of control (dose: 300.0 micrograms/kg/injection, schedule: Q04DX003 (ip), vehicle: water). For the same compound, the T/C reads like this: (dose: 400.0 micrograms/kg/injection, schedule: Q01DX001 (ip), vehicle: saline) 218 % of control; (dose: 400.0 micrograms/kg/injection, schedule: Q04DX003 (ip), vehicle: saline) 263 % of control; (dose: 600.0 micrograms/kg/injection, schedule: Q04DX003 (ip), vehicle: water) 267 % of control.

As to `Cn1cnc([N+](=O)[O-])c1[Se]c1nc(N)nc2c1ncn2C1CC(O)C(CO)O1` (configuration not stated), the T/C was 95 % of control under setting [1]; 90 % of control under setting [2]; 90 % of control (dose: 200.0 mg/kg/injection, schedule: Q04DX003 (ip), vehicle: saline).

For the compound `CCCCCCCCNCCCCCCCC`, the T/C by setting is: (dose: 9.0 mg/kg/injection, schedule: Q01DX009 (ip), vehicle: gum acacia) 108 % of control and 113 % of control; (dose: 9.0 mg/kg/injection, schedule: Q04DX003 (ip), vehicle: gum acacia) 100 % of control; (dose: 18.0 mg/kg/injection, schedule: Q01DX009 (ip), vehicle: gum acacia) 95 % of control and 108 % of control; (dose: 18.0 mg/kg/injection, schedule: Q04DX003 (ip), vehicle: gum acacia) 95 % of control; (dose: 37.0 mg/kg/injection, schedule: Q01DX009 (ip), vehicle: gum acacia) 104 % of control and 116 % of control; (dose: 37.0 mg/kg/injection, schedule: Q04DX003 (ip), vehicle: gum acacia) 100 % of control.

Turning to `OCCCC1CCCCN1` (configuration not stated), the T/C by setting is: under setting [3], 115 % of control; under setting [1], 100 % of control; under setting [2], 105 % of control.

`O=C(Nc1ccc(Br)cc1)c1cc(Br)ccc1O`: the T/C runs as follows: (dose: 50.0 mg/kg/injection, schedule: Q01DX010 (ip), vehicle: steriod suspending solution) 104 % of control; (dose: 100.0 mg/kg/injection, schedule: Q01DX010 (ip), vehicle: steriod suspending solution) 100 % of control; (dose: 200.0 mg/kg/injection, schedule: Q01DX010 (ip), vehicle: steriod suspending solution) 100 % of control; (dose: 400.0 mg/kg/injection, schedule: Q01DX010 (ip), vehicle: steriod suspending solution) 109 % of control.

For `CCC(C)(C)c1ccc(OCCOS(=O)(=O)c2ccc(C)cc2)cc1`, the T/C by setting is: (dose: 12.5 mg/kg/injection, schedule: Q04DX003 (ip), vehicle: saline) 95 % of control; under setting [3], 100 % of control; under setting [1], 91 % of control.
